Publication PMC10141580, “Cyclic Dichalcogenides Extend the Reach of Bioreductive Prodrugs to Harness Thiol/Disulfide Oxidoreductases: Applications to seco-Duocarmycins Targeting the Thioredoxin System” (ACS Central Science, 2023)
Read-outs that look alike come from different tables or passages of the source.

Tested on: panel of 140 standard cancer cell lines
Assay: ProliFiler-140 cancer cell line screen (CellTiterGlo, 72 h)
Assay type: cell-based
Conditions: Homo sapiens
Procedure: Incubations were performed for 72 h before automated viability readout with CellTiterGlo (Figure 8).
End of Figure S11 (part 5 of 5): ProliFiler-140 cancer cell line screening for cytotoxicity of the prodrugs.
8-data-point dose response curves from CellTiter-Glo® viability readout.
ProliFiler-140 cell line panel part V

IC50 (DV-90, DV90 (Lung), read-out: IC50 [M] (ProliFiler-140)): 1.9e-08 M
IC50 (Detroit 562, Detroit562 (Head/Neck), read-out: IC50 [M] (ProliFiler-140)): 1.54e-07 M
IC50 (EFM-19, EFM-19 (Breast), read-out: IC50 [M] (ProliFiler-140)): 4.7e-07 M
IC50 (EFO-27, EFO-27 (Ovary), read-out: IC50 [M] (ProliFiler-140)): 2.9e-07 M
IC50 (EPLC-272H, EPLC-272H (Lung), read-out: IC50 [M] (ProliFiler-140)): 1.97e-07 M
IC50 (HCC38, HCC38 (Breast), read-out: IC50 [M] (ProliFiler-140)): 5.21e-08 M
IC50 (HCC827, HCC827 (Lung), read-out: IC50 [M] (ProliFiler-140)): 3.5e-07 M
IC50 (HCC1569, HCC 1569 (Breast), read-out: IC50 [M] (ProliFiler-140)): 7e-07 M
IC50 (HCT-15, HCT-15 (Colon), read-out: IC50 [M] (ProliFiler-140)): 6.43e-07 M
IC50 (HCT-116, HCT116 (Colon), read-out: IC50 [M] (ProliFiler-140)): 1.07e-07 M
IC50 (HCT-116, HCT116, read-out: IC50): 1.1e-07 M
IC50 (HEC-1-A, HEC-1-A (Endometrium), read-out: IC50 [M] (ProliFiler-140)): 3.3e-07 M
IC50 (HEC-1B, HEC-1-B (Endometrium), read-out: IC50 [M] (ProliFiler-140)): 2.4e-06 M
IC50 (HL-60, HL-60 (Blood), read-out: IC50 [M] (ProliFiler-140)): 2.6e-08 M
IC50 (HL-60, HL-60, read-out: IC50): 2.6e-08 M
IC50 (HT-29, HT-29 (Colon), read-out: IC50 [M] (ProliFiler-140)): 3.7e-07 M
IC50 (HT-29, HT-29, read-out: IC50): 3.7e-07 M
IC50 (HT-1080, HT-1080 (Fibrosarcoma), read-out: IC50 [M] (ProliFiler-140)): 7.6e-08 M
IC50 (HeLa, HeLa (Cervix), read-out: IC50 [M] (ProliFiler-140)): 8.04e-08 M
IC50 (Hs746T, Hs 746T (Stomach), read-out: IC50 [M] (ProliFiler-140)): 4e-07 M
IC50 (HuTu80, Hutu 80 (Duodenum), read-out: IC50 [M] (ProliFiler-140)): 1.87e-08 M
IC50 (Huh-7, HuH7 (Liver), read-out: IC50 [M] (ProliFiler-140)): 2.1e-07 M
IC50 (Ishikawa, Ishikawa (Endometrium), read-out: IC50 [M] (ProliFiler-140)): 7.7e-08 M
IC50 (JIMT-1, JIMT-1 (Breast), read-out: IC50 [M] (ProliFiler-140)): 1.3e-06 M
IC50 (JVM-3, JVM-3 (Blood), read-out: IC50 [M] (ProliFiler-140)): 3e-08 M
IC50 (Jurkat, Jurkat (Blood), read-out: IC50 [M] (ProliFiler-140)): 4.01e-08 M
IC50 (K562, K562 (Blood), read-out: IC50 [M] (ProliFiler-140)): 4.4e-07 M
IC50 (KARPAS-299, KARPAS 299 (Blood), read-out: IC50 [M] (ProliFiler-140)): 7.32e-08 M
IC50 (KATO III, Kato III (Stomach), read-out: IC50 [M] (ProliFiler-140)): 9e-07 M
IC50 (KG-1a, KG-1 a (Blood), read-out: IC50 [M] (ProliFiler-140)): 4.91e-07 M
IC50 (KMS-12-BM, KMS-12-BM (Blood), read-out: IC50 [M] (ProliFiler-140)): 1.65e-07 M
IC50 (LN-229, LN229 (Brain), read-out: IC50 [M] (ProliFiler-140)): 2.16e-07 M
IC50 (LNCaP, LnCap (Prostate), read-out: IC50 [M] (ProliFiler-140)): 1.9e-07 M
IC50 (LoVo, LOVO (Colon), read-out: IC50 [M] (ProliFiler-140)): 1.11e-07 M
IC50 (MDA-MB-435, MDA MB 435 (Skin), read-out: IC50 [M] (ProliFiler-140)): 4.8e-07 M
IC50 (MDA-MB-468, MDA-MB-468 (Breast), read-out: IC50 [M] (ProliFiler-140)): 4.7e-08 M
IC50 (MEC1, MEC-1 (Blood), read-out: IC50 [M] (ProliFiler-140)): 7.3e-08 M
IC50 (MIA PaCa-2, Mia PaCA 2 (Pancreas), read-out: IC50 [M] (ProliFiler-140)): 7.37e-08 M
IC50 (MKN-1, MKN-1 (Stomach), read-out: IC50 [M] (ProliFiler-140)): 5.2e-08 M
IC50 (MKN-45, MKN-45 (Stomach), read-out: IC50 [M] (ProliFiler-140)): 3.16e-07 M
IC50 (MOLM-13, MOLM-13 (Blood), read-out: IC50 [M] (ProliFiler-140)): 2.1e-08 M
IC50 (MOLT-4, MOLT-4 (Blood), read-out: IC50 [M] (ProliFiler-140)): 2.6e-08 M
IC50 (MOLT-4, MOLT-4, read-out: IC50): 2.6e-08 M
IC50 (MV4-11, MV4-11 (Blood), read-out: IC50 [M] (ProliFiler-140)): 4.3e-09 M
IC50 (NALM-6, NALM-6 (Blood), read-out: IC50 [M] (ProliFiler-140)): 2.3e-08 M
IC50 (NCI-H82, NCI-H82 (Lung), read-out: IC50 [M] (ProliFiler-140)): 6.2e-07 M
IC50 (NCI-H292, NCI-H292 (Lung), read-out: IC50 [M] (ProliFiler-140)): 7.2e-08 M
IC50 (NCI-H441, NCI-H441 (Lung), read-out: IC50 [M] (ProliFiler-140)): 3.49e-07 M
IC50 (NCI-H460, H460 (Lung), read-out: IC50 [M] (ProliFiler-140)): 2.6e-08 M
IC50 (NCI-H838, NCI-H838 (Lung), read-out: IC50 [M] (ProliFiler-140)): 1.5e-07 M
IC50 (NCI-H1048, NCI-H1048 (Lung), read-out: IC50 [M] (ProliFiler-140)): 3.2e-08 M
IC50 (NCI-H1299, H1299 (Lung), read-out: IC50 [M] (ProliFiler-140)): 2.23e-07 M
IC50 (NCI-H1437, NCI-H1437 (Lung), read-out: IC50 [M] (ProliFiler-140)): 1.39e-07 M
IC50 (NCI-H1563, NCI-H1563 (Lung), read-out: IC50 [M] (ProliFiler-140)): 5.4e-07 M
IC50 (NCI-H1573, NCI-H1573 (Lung), read-out: IC50 [M] (ProliFiler-140)): 3e-06 M
IC50 (NCI-H1581, NCI-H1581 (Lung), read-out: IC50 [M] (ProliFiler-140)): 1.47e-07 M
IC50 (NCI-H1703, NCI-H1703 (Lung), read-out: IC50 [M] (ProliFiler-140)): 9.2e-08 M
IC50 (NCI-H1838, NCI-H1838 (Lung), read-out: IC50 [M] (ProliFiler-140)): 2.5e-07 M
Structure (SMILES): COc1cccc2c1C(=O)c1c(O)c3c(c(O)c1C2=O)C[C@@](O)(C(=O)CO)C[C@@H]3O[C@H]1C[C@H](N)[C@H](O)[C@H](C)O1 [doxorubicin, reference compound]
